Patent publication US20050064001A1, “Multi-layer adjuvants for controlled delivery of agro-materials into plant tissues” (priority 2001, published 2005)

Assays:
[1] = tested on: Citrus Lemon Urika chlorotic foliage; assay: Biological activity of iron sprayed on chlorotic foliage (leaf color, chlorophyll, iron content, leaf burns); assay type: in vivo; details: for Leaf Color: score 1 yellow, 2 light green, 3 vigorously green leaves
Source text: Effect of Ferri-Vant (Multi-Layer Adjuvant Coated Fe2(SO4)3 on the Biological Activity of Iron Sprayed on Citrus Lemon Urika Chlorotic Foliage
The Ferri-Vant effect was compared with the untreated control, Fe2(SO4)3 sprayed alone and Fe2(SO4)3 treated with the surfactant Silwet^R L-77. Ten leaves from five trees sprayed for each treatment were sampled and scored for green color. The scoring was based as follows: 1—yellow leaves; 2—light green leaves; 3—vigorously green leaves. Chlorophyll level was determined spectrophotometrically as reported by Moran [Moran, R., Plant Physiol. 69:1376-1381 […]]. Iron content was obtained using the ICP system and leaf burns were visually detected.

[2] = tested on: Citrus Grandis isolated cuticles; assay: Penetration of phosphorous (32P) through isolated cuticles; assay type: in vitro ADME; details: 60% relative humidity, 25° C.
Protocol: Effect of MKP-Nutri-Vant^R I on the Percent of Penetration of Phosphorous (^32P) Through Citrus Grandis Isolated Cuticles
(§1) The experiment was carried out for three weeks in a controlled shaking chamber set at 60% relative humidity and 25° C. The values are calculated from the transformation formula −ln(1−Mt/Mo). Mt is the accumulation of radioactivity penetrated in each time period tested; Mo is the total radioactivity applied to the isolated cuticle, based on Schönherr and Riederer [Schonherr, J. and M. Riederer, Plant Cell Environ. […] The values are the means of at least 20 replicates ±S.E.

[3] = tested on: Citrus Grandis leaves; assay: Penetration of phosphorous (32P) into leaves; assay type: in vitro ADME; details: 60% relative humidity, 25° C.
Protocol: as §1
Effect of MKP-Nutri-Vant II on the Percent of Penetration of Phosphorous (^32P) into Citrus Grandis Leaves
The experiment was carried out for two weeks in a controlled shaking chamber set at 60% relative humidity and 25° C. All the details are similar to those in the previous table.

Row | Iron Content at day4 ([1]; day 4, leaves, ICP system) [mg/g] | Structure (SMILES) | Leaf Color ([1]; day 0) | Leaf Color ([1]; day 2) | Leaf Color ([1]; day 4) | Chlorophyll level at day 4, Chl. A ([1]; day 4, spectrophotometric) [mg/sq. cm leaf area] | Chlorophyll level at day 4, Chl. B ([1]; day 4, spectrophotometric) [mg/sq. cm leaf area] | Leaf Color ([1]; day 10) | % Penetration of 32P ([2]; 0 hours, mean of at least 20 replicates ±S.E.) [%] | % Penetration of 32P ([2]; 24 hours, mean ±S.E.) [%] | % Penetration of 32P ([2]; 48 hours, mean ±S.E.) [%] | % Penetration of 32P ([2]; 96 hours, mean ±S.E.) [%] | % Penetration of 32P ([2]; 168 hours, mean ±S.E.) [%] | % Penetration of 32P ([2]; 336 hours, mean ±S.E.) [%] | % Penetration of 32P ([2]; 504 hours, mean ±S.E.) [%] | % Penetration of 32P ([3]; 0 hours) [%] | % Penetration of 32P ([3]; 48 hours) [%] | % Penetration of 32P ([3]; 96 hours) [%] | % Penetration of 32P ([3]; 168 hours) [%] | % Penetration of 32P ([3]; 336 hours) [%]
1 | 0.61 | O=S(=O)([O-])[O-].O=S(=O)([O-])[O-].O=S(=O)([O-])[O-].[Fe+3].[Fe+3] [Fe2(SO4)3 alone, Fe2(SO4)3] | 1 | 1 | 1.3 ± 0.4 | 2.8 | 1.2 | 1.2 ± 0.4 | – | – | – | – | – | – | – | – | – | – | – | –
2 | – | O=P([O-])(O)O.[K+] [MK^32P alone, Monopotassium phosphate] | – | – | – | – | – | – | 0 | 2.6 ± 0.8 | 3.4 ± 1.1 | 5.7 ± 1.4 | 6.3 ± 1.9 | 7.5 ± 1.6 | 7.9 ± 1.9 | 0 | 3.1 ± 0.8 | 4.7 ± 0.6 | 5.5 ± 0.6 | 6.4 ± 0.4
